From patent US9359297B2, “Spirolactam derivatives and uses of same” (H. Lundbeck A/S, priority 2009, dated 2016)
Where two headings read alike, the source gives them in different places.

Columns and labels:
[1] = target: T1, human metabotropic glutamate receptor 5 (hmGluR5) (Homo sapiens, UniProt P41594); experiment: Calcium mobilization (FLIPR) assay for negative allosteric modulation, EC80 glutamate, hmGluR5 in HEK 293; assay type: cell-based; settings: HEK293; hmGluR5, inhibition of EC80 glutamate response; read-out: FLIPR maximum inhibition
T1 construct: expressed in transfected cells
T1 sequence (P41594 21-1212): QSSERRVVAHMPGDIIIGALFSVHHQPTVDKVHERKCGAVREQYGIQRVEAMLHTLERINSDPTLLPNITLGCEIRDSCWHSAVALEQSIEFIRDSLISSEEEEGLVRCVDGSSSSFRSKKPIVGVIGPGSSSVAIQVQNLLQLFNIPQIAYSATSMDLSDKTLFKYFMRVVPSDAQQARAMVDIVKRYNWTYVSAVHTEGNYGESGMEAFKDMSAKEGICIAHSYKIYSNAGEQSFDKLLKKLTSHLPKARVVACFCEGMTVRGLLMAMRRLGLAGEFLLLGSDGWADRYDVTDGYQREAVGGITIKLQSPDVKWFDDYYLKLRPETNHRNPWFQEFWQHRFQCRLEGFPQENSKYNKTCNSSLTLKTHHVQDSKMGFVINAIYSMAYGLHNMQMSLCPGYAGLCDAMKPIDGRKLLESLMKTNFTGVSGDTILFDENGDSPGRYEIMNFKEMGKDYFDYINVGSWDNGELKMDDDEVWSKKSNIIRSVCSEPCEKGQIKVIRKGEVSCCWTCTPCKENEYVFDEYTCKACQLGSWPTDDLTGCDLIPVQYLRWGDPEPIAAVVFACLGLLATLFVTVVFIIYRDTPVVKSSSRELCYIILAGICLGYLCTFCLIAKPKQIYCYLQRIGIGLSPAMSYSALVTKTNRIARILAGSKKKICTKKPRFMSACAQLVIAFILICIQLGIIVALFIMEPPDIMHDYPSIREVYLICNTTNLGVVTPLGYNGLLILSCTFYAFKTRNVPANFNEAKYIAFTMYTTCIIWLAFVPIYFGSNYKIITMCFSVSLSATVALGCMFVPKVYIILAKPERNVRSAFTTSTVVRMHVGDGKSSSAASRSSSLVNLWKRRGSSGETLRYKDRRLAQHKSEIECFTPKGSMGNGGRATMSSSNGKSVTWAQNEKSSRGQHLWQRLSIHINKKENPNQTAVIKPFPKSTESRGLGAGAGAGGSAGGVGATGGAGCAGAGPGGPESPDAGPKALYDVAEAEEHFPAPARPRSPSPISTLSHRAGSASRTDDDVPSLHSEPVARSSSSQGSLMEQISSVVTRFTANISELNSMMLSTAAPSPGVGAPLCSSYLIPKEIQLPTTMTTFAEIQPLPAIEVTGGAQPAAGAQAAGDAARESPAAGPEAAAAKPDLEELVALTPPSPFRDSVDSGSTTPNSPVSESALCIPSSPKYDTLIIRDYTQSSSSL
Summary of the method: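 Stably transfected HEK 293 cells, Fluo-4-loaded, stimulated with EC80 glutamate plus test compound in HBSS/20 mM HEPES pH 7.4 with probenecid; FLIPR fluorescence read over 3 min at room temperature. Basal-subtracted maximum fluorescence change fitted by Hill equation; negative modulation seen as concentration-dependent inhibition of the EC80 response.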

[2] = system: Male Rj: Wistar (Hans) rats; experiment: Vogel Conflict Test (punished drinking); assay type: in vivo; settings: rat
Description: The “Vogel Conflict Test” as described by Vogel et al. [Psychopharmacologia, 1971, 21, 1-7] was used to detect anxiolytic activity of a compound of formula (I) because anxiolytics increase punished drinking. In the test, rats were deprived of water for approximately 48 hours and were then placed individually into a transparent Plexiglas® enclosure (15×32×34 cm) with a floor consisting of stainless steel bars (0.4 cm) spaced 1 cm apart. The back wall of the enclosure was made of opaque Plexiglas® thereby concealing the observer from the experimental animal. In the center of the opposite wall, 5 cm above the floor, a metal water spout protruded into the cage and was connected to one pole of a shock generator (Apelex: Type 011346). The other pole of the shock generator was connected to the metal grid floor.
The rat was left to explore until it found the water spout. Then, every time it drank, it received a slight electric shock (1.7 mA, 1 s) 2 seconds after it started lapping. The number of punished drinks was counted during a 3 minute test. The test was performed blind with 10 rats per group. Testing included multiple tests using reference compounds and a compound of formula (I) that were prepared and administered as described below in the LES test. Male Rj: Wistar (Hans) rats as described therein were used after acclimatization conditions were achieved. Data was analyzed by comparing treated groups with appropriate controls using unpaired Student's t tests.

C57BL/6NTac mice = settings: three weeks treatment, cited from earlier work
[3] = target: mGluR5 (allosteric site, [3H]MPEP) (Homo sapiens, UniProt P41594); experiment: [3H]MPEP radioligand filtration binding assay on membrane homogenates; settings: 5 nM [3H]MPEP; Ki from IC50 by Cheng and Prusoff equation
mGluR5 (allosteric site, [3H]MPEP), sequence (P41594 21-1212): as above
Description: Binding assays were performed as described in [J. A. O'Brien et al. Mol. Pharmacol., 2003, 64, 731-740] with slight modifications. Briefly, after thawing, the membrane homogenates were resuspended in 50 mM Tris-HCl, 0.9% NaCl binding buffer at pH 7.4 to a final assay concentration of 40 μg protein/well for [^3H]2-methyl-6-phenylethynyl-pyridine ([^3H] MPEP) (American Radiolabeled Chemicals, Inc., St. Louis, Mo.) filtration binding. Incubations included 5 nM [^3H] MPEP, membranes and either buffer or varying concentrations of compound. Samples were incubated for 60 min at room temperature with shaking. Non-specific binding was defined with 10 μM MPEP. After incubation, samples were filtered over a GF/C filter (presoaked in 0.25% polyethyleneimine (PEI)) and then washed 4 times using a Tomtec® Harvester 96® Mach III cell harvester (Tomtec, Hamden, Conn.) with 0.5 mL ice-cold 50 mM Tris-HCl (pH 7.4).
IC50 values were derived from the inhibition curve and Ki values were calculated according to the Cheng and Prusoff equation of Ki=IC50/(1+[L]/Kd) described in [Y. Cheng and W. H. Prusoff Biochem. Pharmacol. 1973, 22, 3099-3108] where [L] is the concentration of radioligand and Kd is its dissociation constant at the receptor, derived from the saturation isotherm.

[4] = target: T2, rat metabotropic glutamate receptor 5 (rmGluR5) (Rattus norvegicus, UniProt P31424); experiment: Calcium mobilization (FLIPR) assay for negative allosteric modulation, EC80 glutamate, rmGluR5 in HEK 293; assay type: cell-based; settings: HEK293; rmGluR5, inhibition of EC80 glutamate response; read-out: FLIPR maximum inhibition
T2 construct: expressed in transfected cells
T2 sequence (P31424 21-1203): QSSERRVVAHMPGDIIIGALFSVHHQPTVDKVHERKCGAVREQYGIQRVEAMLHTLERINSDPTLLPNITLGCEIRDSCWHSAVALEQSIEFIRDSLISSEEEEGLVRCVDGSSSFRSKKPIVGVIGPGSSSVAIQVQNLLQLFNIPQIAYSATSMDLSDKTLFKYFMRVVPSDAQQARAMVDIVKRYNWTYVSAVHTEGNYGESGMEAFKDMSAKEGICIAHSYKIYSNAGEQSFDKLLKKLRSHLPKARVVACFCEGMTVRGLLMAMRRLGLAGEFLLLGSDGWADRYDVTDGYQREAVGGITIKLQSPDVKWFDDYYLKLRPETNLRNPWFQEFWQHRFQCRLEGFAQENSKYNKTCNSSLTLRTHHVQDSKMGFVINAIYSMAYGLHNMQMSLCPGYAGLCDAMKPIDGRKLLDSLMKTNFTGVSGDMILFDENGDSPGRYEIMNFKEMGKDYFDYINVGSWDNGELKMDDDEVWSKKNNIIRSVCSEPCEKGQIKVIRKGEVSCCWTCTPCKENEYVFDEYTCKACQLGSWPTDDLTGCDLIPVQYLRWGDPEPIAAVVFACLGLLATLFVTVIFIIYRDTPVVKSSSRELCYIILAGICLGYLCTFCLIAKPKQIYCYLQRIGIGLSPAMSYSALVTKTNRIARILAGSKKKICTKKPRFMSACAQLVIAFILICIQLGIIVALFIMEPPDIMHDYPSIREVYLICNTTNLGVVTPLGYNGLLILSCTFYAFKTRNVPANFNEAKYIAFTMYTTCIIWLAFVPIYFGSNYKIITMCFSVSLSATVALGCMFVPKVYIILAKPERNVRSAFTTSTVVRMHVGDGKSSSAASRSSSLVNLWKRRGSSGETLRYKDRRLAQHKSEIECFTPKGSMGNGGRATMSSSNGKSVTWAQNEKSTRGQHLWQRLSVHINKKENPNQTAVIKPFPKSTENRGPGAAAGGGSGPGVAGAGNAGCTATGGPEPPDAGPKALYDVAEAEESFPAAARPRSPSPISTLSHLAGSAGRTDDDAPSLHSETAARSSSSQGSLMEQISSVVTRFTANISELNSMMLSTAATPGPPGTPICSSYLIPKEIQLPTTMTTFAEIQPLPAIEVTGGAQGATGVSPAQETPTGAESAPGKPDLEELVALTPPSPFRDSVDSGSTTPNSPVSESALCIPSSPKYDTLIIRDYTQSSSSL
Description: The cDNA for rat metabotropic glutamate receptor 5 (rmGluR5) and the cDNA for human metabotropic glutamate receptor 5 (hmGluR5) were generous gifts from S. Nakanishi (Kyoto University, Kyoto, Japan). The rmGluR5 or hmGluR5 was stably expressed in a HEK 293 cell line and grown in Dulbecco's Modified Eagle Medium (DMEM) (Invitrogen, Carlsbad, Calif.) with supplements (10% bovine calf serum, 4 mM glutamine, 100 units/mL penicillin, 100 μg/mL streptomycin and 0.75 mM G1418) at 37° C., 5% CO2. Twenty-four hours prior to assay, cells were seeded into 384-well black wall microtiter plates coated with poly-D-lysine. Just prior to assay, media was aspirated and cells dye-loaded (25 μL/well) with 3 μM Fluo-4/0.01% pluronic acid in assay buffer (Hank's Balanced Saline Solution (HBSS)): 150 mM NaCl, 5 mM KCl, 1 mM CaCl2, 1 mM MgCl2, plus 20 mM N-2-Hydroxyethylpiperazine-N′-2-ethanesulfonic acid (HEPES), pH 7.4, 0.1% bovine serum albumin (BSA) and 2.5 mM probenicid) for 1 hour in 5% CO2 at 37° C. After excess dye was discarded, cells were washed in assay buffer and layered with a final volume equal to 30 μL/well. Basal fluorescence is monitored in a fluorometric imaging plate reader (FLIPR) (Molecular Devices, Sunnyvale, Calif.) with an excitation wavelength of 488 nm and an emission range of 500 to 560 nm. Laser excitation energy was adjusted so that basal fluorescence readings were approximately 10,000 relative fluorescent units. Cells were stimulated with an EC20 or an EC80 concentration of glutamate in the presence of a compound to be tested, both diluted in assay buffer, and relative fluorescent units were measured at defined intervals (exposure=0.6 sec) over a 3 min period at room temperature. Basal readings derived from negative controls were subtracted from all samples. Maximum change in fluorescence was calculated for each well. Concentration-response curves derived from the maximum change in fluorescence were analyzed by nonlinear regression (Hill equation). A negative modulator can be identified from these concentration-response curves if a compound produces a concentration dependent inhibition of the EC80 glutamate response.

male CD1 mice = experiment: Mouse marble burying (mMB) assay; assay type: in vivo; settings: 30 mpk (sc), FIG. 1
Description: More specifically for the mMB testing, adult, male CD1 mice (Charles River Laboratories (Kingston, N.Y.)), weighing 25 to 30 g, were used. All animals were group-housed in a standard colony room with a 12:12 light/dark cycle (lights on at 6:00 am) for at least one week prior to testing. Food and water were provided ad libitum. Animals were weighed, tail marked, and randomly assigned to treatment groups before testing.
For each test, sixty minutes after the injection of vehicle or test compound, or 30 min after injection of the positive control, buspirone, mice were individually placed into test cages containing 1.5 in of Aspen bedding (PWI brand) and two rows of 10 marbles (20 marbles per test cage total). Filter tops were used to cover each test cage. Thirty minutes later, mice were removed from test cages and returned to their home cages. The number of fully visible marbles (less than ⅔ covered with bedding) were counted and subtracted from 20 to arrive at the number of marbles buried. Twelve mice were tested per group.
Testing included multiple tests with each test performed to evaluate buspirone hydrochloride (BUS; Sigma Aldrich) (positive control) and/or a compound of formula (I). […] Doses were measured in mg drug (salt form) per kg body weight. Data was analyzed using one-way ANOVA with post-hoc Dunnett's test.

Structure (SMILES)	Ki [3]	Emax [4]	also measured
Cc1nccc(C(=O)N[C@@H]2CCC[C@@]3(CCN(c4cc(F)cc(F)c4)C3=O)C2)n1 [Example 82, 2-Methyl-pyrimidine-4-carboxylic acid [(5R,7R)-2-(3,5-difluoro-phenyl)-1-oxo-2-aza-spiro[4.5]dec-7-yl]-amide]			Emax [1]: 73 to 95%; activity in the Vogel Conflict Test ([2]; 10 mpk (p.o.)): significant activity
CNCCC(Oc1ccc(C(F)(F)F)cc1)c1ccccc1 (centres unmarked) [fluoxetine]			effect on anxiety- and depression-like effects of seven weeks corticosterone in the OF, NSF and FST (C57BL/6NTac mice; 18 mg/kg/day ip): reversed the anxiety- and depression-like effects
O=C(N[C@H]1CCC[C@]2(CCN(c3cccc(Cl)c3)C2=O)C1)c1ccccn1 (racemic) [Example 2, cis-pyridine-2-carboxylic acid [2-(3-chloro-phenyl)-1-oxo-2-aza-spiro[4.5]dec-7-yl]-amide]	250 nM	81 to 99%	
O=C(N[C@@H]1CCC[C@@]2(CCN(c3cccc(Cl)c3)C2=O)C1)c1ccccn1 (single isomer, unassigned) [Example 5]	95 nM	81 to 99%	in vivo anxiolytic effect in mouse marble burying (male CD1 mice): statistically significant in vivo anxiolytic effect
O=C(N[C@@H]1CCC[C@@]2(CCN(c3cccc(F)c3)C2=O)C1)c1ccccn1 [Example 25, Pyridine-2-carboxylic acid [(5R,7R)-2-(3-fluoro-phenyl)-1-oxo-2-aza-spiro [4.5]dec-7-yl]-amide]	130 nM	81 to 99%	activity in the Vogel Conflict Test ([2]; 30 mpk (p.o.)): significant activity
Cc1cccc(C(=O)N[C@H]2CCC[C@]3(CCN(c4cccc(C)n4)C3=O)C2)n1 (relative stereo) [Example 23, cis-6-Methyl-pyridine-2-carboxylic acid [2-(6-methyl-pyridin-2-yl)-1-oxo-2-aza-spiro[4.5]dec-7-yl]-amide]	190 nM	81 to 99%	
Cc1cccc(C(=O)N[C@H]2CCC[C@]3(CCN(c4cccc(C(F)(F)F)n4)C3=O)C2)n1 (racemic) [Example 41, cis-6-Methyl-pyridine-2-carboxylic acid [1-oxo-2-(6-trifluoromethyl-pyridin-2-yl)-2-aza-spiro[4.5]dec-7-yl]-amide]		81 to 99%	
Cc1cccc(C(=O)N[C@H]2CCC[C@]3(CCN(c4ncccc4C)C3=O)C2)n1 (relative stereo) [Example 50, cis-6-Methyl-pyridine-2-carboxylic acid [2-(3-methyl-pyridin-2-yl)-1-oxo-2-aza-spiro[4.5]dec-7-yl]-amide]		81 to 99%	
Cc1nccc(N2CC[C@@]3(CCC[C@@H](NC(=O)c4cccc(F)c4)C3)C2=O)n1 [Example 147, 3-Fluoro-N-[(5R,7R)-2-(2-methyl-pyrimidin-4-yl)-1-oxo-2-aza-spiro[4.5]dec-7-yl]-benzamide]			Emax [1]: 47 to 93%; activity in the Vogel Conflict Test ([2]; 3 mpk (p.o.)): significant activity; activity in the Vogel Conflict Test ([2]; 10 mpk (p.o.)): significant activity; activity in the Vogel Conflict Test ([2]; 30 mpk (p.o.)): significant activity
N#Cc1cccc(N2CC[C@]3(CCC[C@H](NC(=O)c4cccc(F)c4)C3)C2=O)n1 (relative stereo) [Example 53, cis-N-[2-(6-Cyano-pyridin-2-yl)-1-oxo-2-aza-spiro[4.5]dec-7-yl]-3-fluoro-benzamide]		81 to 99%	
CN(C)CCCN1c2ccccc2CCc2ccccc21 [imipramine]			effect on anxiety- and depression-like effects of seven weeks corticosterone in the OF, NSF and FST (C57BL/6NTac mice; 40 mg/kg/day ip): reversed the anxiety- and depression-like effects
Cc1cccc(C(=O)N[C@H]2CCC[C@]3(CCN(c4cccc(Cl)c4)C3=O)C2)n1 (relative stereo) [Example 4, cis-6-Methyl-pyridine-2-carboxylic acid [2-(3-chloro-phenyl)-1-oxo-2-aza-spiro[4.5]dec-7-yl]-amide]	74 nM	81 to 99%	
Cc1cccc(C(=O)N[C@H]2CCC[C@]3(CCN(c4ccc(F)cc4)C3=O)C2)n1 (racemic) [Example 44, cis-6-Methyl-pyridine-2-carboxylic acid [2-(4-fluoro-phenyl)-1-oxo-2-aza-spiro[4.5]dec-7-yl]-amide]		81 to 99%	
Cc1cccc(C(=O)N[C@H]2CCC[C@]3(CCN(c4cccc(F)c4)C3=O)C2)n1 (relative stereo) [Example 17, cis-6-Methyl-pyridine-2-carboxylic acid [2-(3-fluoro-phenyl)-1-oxo-2-aza-spiro[4.5]dec-7-yl]-amide]		81 to 99%	
Cc1cccc(C(=O)N[C@H]2CCC[C@]3(CCN(c4cccc(C#N)c4)C3=O)C2)n1 (relative stereo) [Example 10, cis-6-Methyl-pyridine-2-carboxylic acid [2-(3-cyano-phenyl)-1-oxo-2-aza-spiro [4.5]dec-7-yl]-amide]		81 to 99%	
